Reference: US10675284B2, “Treatment of B-cell malignancies by a combination JAK and PI3K inhibitors” (Incyte Corporation, priority 2014, dated 2020)
Read-outs that look alike come from different tables or passages of the source.

Assays:
[1] = tested on: Pfeiffer human tumor xenograft; test: Pfeiffer model of lymphoma (human tumor xenograft in SCID mice); type: in vivo, mouse
Description: Female SCID mice, (5 to 8 weeks of age, Charles River Laboratories, Wilmington, Mass.) were inoculated with 1×10^7 tumor cells (Pfeiffer, ATCC #CRL-2632, Manassas, Va.) and matrigel (BD Biosciences #354234) in 0.2 mL sterile saline. The inoculation was performed subcutaneously on the flank. Tumor tissue fragments (approximately 3 mm×3 mm) were collected 3 to 6 weeks after the inoculation of cultured cells and implanted subcutaneously in lieu of cellular inoculation. Tissue fragments were implanted as solid pieces using blunt-tip forceps. The treatment of tumor bearing mice was started 15 to 25 days after tumor inoculation, depending upon the tumor size. Animals were sorted to obtain roughly equivalent mean tumor volumes in each group. Minimum mean tumor volume in all groups was 150 mm3 on the first day of treatment and groups consisted of 7 animals. Experimental therapeutic agent, Example 347, was administered to mice orally (PO). Treatment frequency was 2 times daily for a minimum of 14 days for efficacy. The size of subcutaneous tumors was measured 2 to 3 times weekly using a digital caliper. The tumor volume was calculated by measuring the tumor in 2 dimensions and utilizing the equation: Volume=[Length×(Width2)]/2; where the larger number was length, and the smaller number width. If multiple tumors were formed, the final volume was the sum of the individual tumors subject to the same equation: eg, 2 tumors; Volume={[L1×(W1)2]/2}+{[L2×(W2)2]/2}. Effects on tumor growth were reported as percent tumor growth inhibition (% TGI). Percent TGI was calculated with the equation: (1−(Tx vol./control vol.))*100, where control volume was the vehicle or untreated tumor volume on a given day, and Tx volume was any treatment group tumor volume on that same day. Statistical differences between treatment and vehicle controls were assessed using ANOVA: Single Factor test.
Compound 32c (Table 2 supra) was evaluated as a single agent in the Pfeiffer human tumor xenograft model of diffuse large B-cell lymphoma, a subtype of NHL. […] Therefore, a tumor model was established based on subcutaneous inoculation of tumor cells into immune compromised SCID mice and tumor-bearing mice received twice daily oral doses of vehicle or Compound 32c at 0.3, 1, 3, or 10 mg/kg for 14 days.

Pfeiffer cells [2] = test: Cell proliferation assay in Pfeiffer cells; type: cell-based, human; conditions: for IC50: Homo sapiens, Pfeiffer, 72 h, Pfeiffer cells, 3 days, read-out: IC50, cell growth
Description: Diffuse large B cell lymphoma cells were seeded at 2000 cell/well in 96 well culture plates in the absence or presence of 10 ng/ml IL10. Compounds were added to these cells after dilution in DMSO first, followed by dilution in culture medium (4× concentration). The cells were cultured in an incubator for 3 days with 5% CO2. Cell proliferation was assessed using the Cell titer-glow assay (Promega, Madison, Wis.).

Pfeiffer cells [3] = test: Western blot analysis of Pfeiffer cells; type: cell-based, human; conditions: for IL10-induced expression of Pim2: 24 hours
Description: The following materials and methods were used in the Western blot analysis infra. Cells (5 million) were lysed in a 300 μl volume of lysis buffer. Soluble fractions were collected by centrifugation. 25 μl of cell lysate were loaded into Tris-Glycine polyacrylamide gels and subjected to electrophoresis. The proteins were transferred into nitrocellulose membrane and probed with antibodies from Cell Signaling Technology for the following proteins: phospho-Stat3 Y705, phospho-Akt 5473, pim1, pim2, pim3, c-myc, phospho-p70S6K, phosho-S6, phospho-Bad S112 and actin.
IL6 and IL10 promote cell survival through the expression of Pim2, which is dependent on JAK1 activity.
Extracts were analyzed by Western blot for pAKT and pSTAT3.

Pfeiffer cells [4] = test: Annexin-V staining of Pfeiffer cells (apoptosis); type: cell-based, human; conditions: 3 days, 10% FBS + IL10, Compound 16 at 1 μM
[5] = target: human JAK1 (a.a. 837-1142) (Homo sapiens, UniProt P23458); test: In vitro JAK kinase assay (HTRF), JAK1; type: biochemical; conditions: 1 mM ATP; read-out: JAK1 IC50
human JAK1 (a.a. 837-1142), sequence (P23458 whole entry, looked up): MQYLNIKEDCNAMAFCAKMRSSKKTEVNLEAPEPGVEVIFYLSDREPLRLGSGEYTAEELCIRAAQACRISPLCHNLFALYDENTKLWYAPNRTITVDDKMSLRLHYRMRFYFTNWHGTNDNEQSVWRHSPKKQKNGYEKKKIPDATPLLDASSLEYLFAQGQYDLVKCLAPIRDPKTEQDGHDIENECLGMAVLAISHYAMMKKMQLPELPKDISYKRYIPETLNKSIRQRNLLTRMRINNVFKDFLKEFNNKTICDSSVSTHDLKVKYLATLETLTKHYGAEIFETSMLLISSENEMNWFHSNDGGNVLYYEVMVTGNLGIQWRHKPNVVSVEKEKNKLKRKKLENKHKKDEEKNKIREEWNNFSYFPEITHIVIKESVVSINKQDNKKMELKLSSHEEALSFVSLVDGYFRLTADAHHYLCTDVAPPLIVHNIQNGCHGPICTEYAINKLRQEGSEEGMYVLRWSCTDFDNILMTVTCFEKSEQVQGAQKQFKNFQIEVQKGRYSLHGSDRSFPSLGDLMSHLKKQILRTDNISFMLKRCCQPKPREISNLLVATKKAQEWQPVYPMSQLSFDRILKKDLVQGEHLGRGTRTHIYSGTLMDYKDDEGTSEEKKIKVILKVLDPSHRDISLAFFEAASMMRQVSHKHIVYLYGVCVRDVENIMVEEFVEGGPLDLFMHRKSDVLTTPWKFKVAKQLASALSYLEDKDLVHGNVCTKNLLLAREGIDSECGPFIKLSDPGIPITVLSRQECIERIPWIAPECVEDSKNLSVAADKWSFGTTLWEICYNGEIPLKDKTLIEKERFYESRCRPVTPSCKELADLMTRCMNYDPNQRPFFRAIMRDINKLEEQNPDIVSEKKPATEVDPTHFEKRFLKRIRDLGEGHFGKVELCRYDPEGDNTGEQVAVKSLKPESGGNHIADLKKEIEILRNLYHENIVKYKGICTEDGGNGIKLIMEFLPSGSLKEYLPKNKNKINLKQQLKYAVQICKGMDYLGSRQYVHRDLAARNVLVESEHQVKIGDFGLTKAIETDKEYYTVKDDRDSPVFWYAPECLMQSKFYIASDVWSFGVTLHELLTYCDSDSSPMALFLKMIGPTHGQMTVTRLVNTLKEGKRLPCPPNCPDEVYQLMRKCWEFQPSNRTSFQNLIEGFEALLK

[6] = target: human JAK2 (a.a. 828-1132) (Homo sapiens (Human), UniProt O60674); test: In vitro JAK kinase assay (HTRF), JAK2; type: biochemical; conditions: IC50 ratio, 1 mM ATP
human JAK2 (a.a. 828-1132), sequence (O60674 828-1132): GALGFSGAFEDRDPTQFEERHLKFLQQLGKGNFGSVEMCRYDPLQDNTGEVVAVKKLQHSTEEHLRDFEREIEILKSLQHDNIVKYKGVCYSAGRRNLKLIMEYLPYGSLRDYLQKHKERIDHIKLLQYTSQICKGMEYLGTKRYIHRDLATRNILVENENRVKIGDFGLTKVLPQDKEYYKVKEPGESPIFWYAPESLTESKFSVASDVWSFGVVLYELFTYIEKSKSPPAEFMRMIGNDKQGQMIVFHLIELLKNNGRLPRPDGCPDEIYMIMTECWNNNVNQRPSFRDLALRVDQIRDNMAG

PI3Kδ (p110δ/p85α) = PI3Kδ (p110δ/p85α) (Homo sapiens (Human), UniProt O00329); test: PI3Kδ scintillation proximity assay; type: biochemical; conditions: 20 μM ATP
PI3Kδ (p110δ/p85α), sequence (O00329 whole entry): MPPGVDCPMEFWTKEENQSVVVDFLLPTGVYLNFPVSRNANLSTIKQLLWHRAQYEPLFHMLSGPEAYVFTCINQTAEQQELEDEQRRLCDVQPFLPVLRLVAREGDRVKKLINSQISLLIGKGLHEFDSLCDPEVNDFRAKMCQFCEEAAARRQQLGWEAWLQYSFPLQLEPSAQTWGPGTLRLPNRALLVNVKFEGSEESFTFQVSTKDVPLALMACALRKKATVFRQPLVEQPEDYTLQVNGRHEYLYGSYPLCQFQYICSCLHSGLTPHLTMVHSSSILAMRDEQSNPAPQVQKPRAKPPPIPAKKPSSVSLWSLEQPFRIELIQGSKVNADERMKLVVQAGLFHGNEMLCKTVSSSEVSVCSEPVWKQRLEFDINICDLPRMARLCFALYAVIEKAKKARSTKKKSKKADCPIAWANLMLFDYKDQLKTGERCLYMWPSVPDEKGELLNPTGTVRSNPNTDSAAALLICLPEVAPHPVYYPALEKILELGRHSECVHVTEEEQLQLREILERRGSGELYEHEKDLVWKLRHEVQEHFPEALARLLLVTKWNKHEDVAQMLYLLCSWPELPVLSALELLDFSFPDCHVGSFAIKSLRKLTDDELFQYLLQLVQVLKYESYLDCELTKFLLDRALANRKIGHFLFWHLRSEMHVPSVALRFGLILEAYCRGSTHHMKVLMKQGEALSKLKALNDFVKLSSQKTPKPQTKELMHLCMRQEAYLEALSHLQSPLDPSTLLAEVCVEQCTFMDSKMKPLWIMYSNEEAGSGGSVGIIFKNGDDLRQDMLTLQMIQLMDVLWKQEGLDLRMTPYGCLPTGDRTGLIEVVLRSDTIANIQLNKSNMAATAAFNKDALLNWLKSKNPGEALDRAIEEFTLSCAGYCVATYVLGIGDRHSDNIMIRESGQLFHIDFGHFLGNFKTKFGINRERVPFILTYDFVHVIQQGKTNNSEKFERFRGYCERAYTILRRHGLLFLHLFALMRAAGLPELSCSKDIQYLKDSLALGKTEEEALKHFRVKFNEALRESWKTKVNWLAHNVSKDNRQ
PI3Kδ (p110δ/p85α), sequence (P27986 whole entry partner): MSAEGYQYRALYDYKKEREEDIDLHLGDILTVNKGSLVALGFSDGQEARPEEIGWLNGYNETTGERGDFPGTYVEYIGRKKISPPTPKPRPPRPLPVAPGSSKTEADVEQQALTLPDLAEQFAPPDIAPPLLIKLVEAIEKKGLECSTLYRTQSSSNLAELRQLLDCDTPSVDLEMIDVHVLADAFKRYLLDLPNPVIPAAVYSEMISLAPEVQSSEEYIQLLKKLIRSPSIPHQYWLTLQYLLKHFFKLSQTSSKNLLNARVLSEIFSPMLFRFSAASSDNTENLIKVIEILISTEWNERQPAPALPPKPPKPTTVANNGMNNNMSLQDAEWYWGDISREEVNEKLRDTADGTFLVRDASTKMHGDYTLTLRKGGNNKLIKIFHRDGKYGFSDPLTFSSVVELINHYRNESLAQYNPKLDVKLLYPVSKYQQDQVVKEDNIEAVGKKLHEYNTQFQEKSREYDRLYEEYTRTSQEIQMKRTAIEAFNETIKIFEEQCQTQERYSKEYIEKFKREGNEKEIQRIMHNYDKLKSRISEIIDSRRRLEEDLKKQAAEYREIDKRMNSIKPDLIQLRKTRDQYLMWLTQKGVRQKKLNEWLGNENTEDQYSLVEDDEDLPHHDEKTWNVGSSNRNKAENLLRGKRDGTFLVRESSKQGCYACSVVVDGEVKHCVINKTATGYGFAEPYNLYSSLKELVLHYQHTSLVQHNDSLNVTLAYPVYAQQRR
Description: [γ-^33P]ATP (10 mCi/mL) was purchased from Perking Elmer (Waltham, Mass.). […] PI3Kδ (p110δ/p85α) was purchased from Millipore (Bedford, Mass.). ATP, MgCl2, DTT, EDTA, MOPS and CHAPS were purchased from Sigma-Aldrich (St. Louis, Mo.). Wheat Germ Agglutinin (WGA) YSi SPA Scintillation Beads was purchased from GE healthcare life sciences (Piscataway, N.J.). The kinase reaction was conducted in polystyrene 384-well matrix white plate from Thermo Fisher Scientific in a final volume of 25 μL. Inhibitors were first diluted serially in DMSO and added to the plate wells before the addition of other reaction components. The final concentration of DMSO in the assay was 0.5%. […] Reactions were initiated by the addition of ATP, the final reaction mixture consisted of 20 μM PIP2, 20 μM ATP, 0.2 μCi [γ-^33P] ATP, 4 nM PI3Kδ. Reactions were incubated for 210 min and terminated by the addition of 40 μL SPA beads suspended in quench buffer: 150 mM potassium phosphate pH 8.0, 20% glycerol. 25 mM EDTA, 400 μM ATP. The final concentration of SPA beads was 1.0 mg/mL. After the plate sealing, plates were shaken overnight at room temperature and centrifuged at 1800 rpm for 10 minutes, the radioactivity of the product was determined by scintillation counting on Topcount (Perking Elmer).

[7] = 4 hours, then IL-10 for 15 minutes

IC50 [5] [nM] | JAK2/JAK1 [6] | Compound | further results
– | – | CCOc1c(C(C)n2nc(C)c3c(N)ncnc32)cc(Cl)c(F)c1C1CNC(=O)C1 (stereo not shown) [Compound 32c, 4-{3-[1-(4-amino-3-methyl-1H-pyrazolo[3,4-d]pyrimidin-1-yl)ethyl]-5-chloro-2-ethoxy-6-fluorophenyl}pyrrolidin-2-one] | percent tumor growth inhibition ([1]; 0.3 mg/kg oral twice daily for 14 days): 22%; percent tumor growth inhibition ([1]; 1 mg/kg oral twice daily for 14 days): 24%; percent tumor growth inhibition ([1]; 3 mg/kg oral twice daily for 14 days): 36%; percent tumor growth inhibition ([1]; 10 mg/kg oral twice daily for 14 days): 58%; anti-proliferative effects on Pfeiffer cancer cells (Pfeiffer cells [2]; in vitro): sensitive
– | – | Cc1csc2nc([C@H](C)Nc3ncnc4[nH]cnc34)c(-c3cccc(F)c3)c(=O)n12 [Compound 28, (S)-7-(1-(9H-purin-6-ylamino)ethyl)-6-(3-fluorophenyl)-3-methyl-5H-thiazolo[3,2-a]pyrimidin-5-one] | IC50 (Pfeiffer cells [2]; 10% FBS + IL10, ATP readout, Compound 16 at 1 μM in combination): 6360 nM; IC50 (Pfeiffer cells [2]; -IL-10, ATP readout): 670 nM; STAT3 phosphorylation (Pfeiffer cells [3]; [7]): did not; pAKT (Pfeiffer cells [3]; [7]): complete inhibition; apoptosis (Annexin-V staining) (Pfeiffer cells [4]): neither agent alone had a significant effect
– | – | COc1c(C(C)n2nc(C)c3c(N)ncnc32)cc(Cl)c(C#N)c1C1CN(C[C@H](C)O)C1 (stereo partly drawn) [Compound 29, 4-[1-(4-amino-3-methyl-1H-pyrazolo[3,4-d]pyrimidin-1-yl)ethyl]-6-chloro-2-{1-[(2S)-2-hydroxypropyl]azetidin-3-yl}-3-methoxybenzonitrile] | IC50 (PI3Kδ (p110δ/p85α)): < 50 nM
< 10 | >10 | N#CC[C@]1(n2cc(-c3ncnc4[nH]ccc34)cn2)C[C@H](N2CCC(Oc3cc(CN4CCC[C@@H]4CO)cc(C(F)(F)F)n3)CC2)C1 [Compound 13, {trans-3-(4-{[4-{[(2R)-2-(hydroxymethyl)pyrrolidin-1-yl]methyl}-6-(trifluoromethyl)pyridin-2-yl]oxy}piperidin-1-yl)-1-[4-(7H-pyrrolo[2,3-d]pyrimidin-4-yl)-1H-pyrazol-1-yl]cyclobutyl}acetonitrile] | –
< 10 | >10 | N#CCC1(n2cc(-c3ncnc4[nH]ccc34)cn2)CN([C@H]2CC[C@@H](Oc3cc(CN4CC[C@H](O)C4)cc(C(F)(F)F)n3)CC2)C1 [Compound 22, {1-(cis-4-{[4-{[(3S)-3-hydroxypyrrolidin-1-yl]methyl}-6-(trifluoromethyl)pyridin-2-yl]oxy}cyclohexyl)-3-[4-(7H-pyrrolo[2,3-d]pyrimidin-4-yl)-1H-pyrazol-1-yl]azetidin-3-yl}acetonitrile] | –
< 10 | >10 | N#CCC1(n2cc(-c3ncnc4[nH]ccc34)cn2)CN([C@H]2CC[C@@H](Oc3cc(CCO)nc(C(F)(F)F)n3)CC2)C1 [Compound 18, {1-(cis-4-{[6-(2-hydroxyethyl)-2-(trifluoromethyl)pyrimidin-4-yl]oxy}cyclohexyl)-3-[4-(7H-pyrrolo[2,3-d]pyrimidin-4-yl)-1H-pyrazol-1-yl]azetidin-3-yl}acetonitrile] | –
< 10 | >10 | N#CCC1(n2cc(-c3ncnc4[nH]ccc34)cn2)CN(C2CCN(C(=O)Nc3ccc(F)cc3C(F)(F)F)CC2)C1 [Compound 8, 4-{3-(cyanomethyl)-3-[4-(7H-pyrrolo[2,3-d]pyrimidin-4-yl)-1H-pyrazol-1-yl]azetidin-1-yl}-N-[4-fluoro-2-(trifluoromethyl)phenyl]piperidine-1-carboxamide] | –
< 10 | >10 | N#CC[C@]1(n2cc(-c3ncnc4[nH]ccc34)cn2)C[C@H](N2CCC(Oc3cc(CCO)cc(C(F)(F)F)n3)CC2)C1 [Compound 26, {trans-3-(4-{[4-(2-hydroxyethyl)-6-(trifluoromethyl)pyridin-2-yl]oxy}piperidin-1-yl)-1-[4-(7H-pyrrolo[2,3-d]pyrimidin-4-yl)-1H-pyrazol-1-yl]cyclobutyl}acetonitrile] | –
– | – | N#CC[C@H](C1CCCC1)n1cc(-c2ncnc3[nH]ccc23)cn1 [ruxolitinib, (3R)-3-cyclopentyl-3-[4-(7H-pyrrolo[2,3-d]pyrimidin-4-yl)-1H-pyrazol-1-yl]propanenitrile, reference compound] | IL10-induced expression of Pim2 (Pfeiffer cells [3]): blocked
– | – | CCOc1c(C(C)n2nc(C)c3c(N)ncnc32)cc(C)c(C#N)c1-c1ccc(C(=O)N(C)C)nc1 (stereo not shown) [Compound 31, 5-{3-[1-(4-amino-3-methyl-1H-pyrazolo[3,4-d]pyrimidin-1-yl)ethyl]-6-cyano-2-ethoxy-5-methylphenyl}-N,N-dimethylpyridine-2-carboxamide] | IC50 (PI3Kδ (p110δ/p85α)): < 50 nM
< 10 | >10 | C[C@H](O)CNCc1cc(OC2CCN([C@H]3C[C@](CC#N)(n4cc(-c5ncnc6[nH]ccc56)cn4)C3)CC2)nc(C(F)(F)F)c1 [Compound 25, {trans-3-(4-{[4-({[(2S)-2-hydroxypropyl]amino}methyl)-6-(trifluoromethyl)pyridin-2-yl]oxy}piperidin-1-yl)-1-[4-(7H-pyrrolo[2,3-d]pyrimidin-4-yl)-1H-pyrazol-1-yl]cyclobutyl}acetonitrile] | –
< 10 | >10 | N#CCC1(n2cc(-c3ncnc4[nH]ccc34)cn2)CN([C@H]2CC[C@@H](Oc3cc(CN4CC[C@@H](O)C4)cc(C(F)(F)F)n3)CC2)C1 [Compound 21, {1-(cis-4-{[4-{[(3R)-3-hydroxypyrrolidin-1-yl]methyl}-6-(trifluoromethyl)pyridin-2-yl]oxy}cyclohexyl)-3-[4-(7H-pyrrolo[2,3-d]pyrimidin-4-yl)-1H-pyrazol-1-yl]azetidin-3-yl}acetonitrile] | –
< 10 | >10 | N#CC[C@]1(n2cc(-c3ncnc4[nH]ccc34)cn2)C[C@H](N2CCN(C(=O)c3ccnc(C(F)(F)F)n3)CC2)C1 [Compound 10, [trans-1-[4-(7H-pyrrolo[2,3-d]pyrimidin-4-yl)-1H-pyrazol-1-yl]-3-(4-{[2-(trifluoromethyl)pyrimidin-4-yl]carbonyl}piperazin-1-yl)cyclobutyl]acetonitrile] | –
< 10 | >10 | C[C@@H](O)CNCc1cc(OC2CCN([C@H]3C[C@](CC#N)(n4cc(-c5ncnc6[nH]ccc56)cn4)C3)CC2)nc(C(F)(F)F)c1 [Compound 24, {trans-3-(4-{[4-({[(2R)-2-hydroxypropyl]amino}methyl)-6-(trifluoromethyl)pyridin-2-yl]oxy}piperidin-1-yl)-1-[4-(7H-pyrrolo[2,3-d]pyrimidin-4-yl)-1H-pyrazol-1-yl]cyclobutyl}acetonitrile] | –
< 10 | >10 | CCNCc1cc(O[C@H]2CC[C@@H](N3CC(CC#N)(n4cc(-c5ncnc6[nH]ccc56)cn4)C3)CC2)nc(C(F)(F)F)c1 [Compound 19, {1-(cis-4-{[4-[(ethylamino)methyl]-6-(trifluoromethyl)pyridin-2-yl]oxy}cyclohexyl)-3-[4-(7H-pyrrolo[2,3-d]pyrimidin-4-yl)-1H-pyrazol-1-yl]azetidin-3-yl}acetonitrile] | –
– | – | COc1c(C(C)n2nc(C)c3c(N)ncnc32)cc(Cl)c(C#N)c1C1CN(CCO)C1 (stereo not shown) [Compound 30, 4-[1-(4-amino-3-methyl-1H-pyrazolo[3,4-d]pyrimidin-1-yl)ethyl]-6-chloro-2-[1-(2-hydroxyethyl)azetidin-3-yl]-3-methoxybenzonitrile] | IC50 (PI3Kδ (p110δ/p85α)): < 50 nM

Compound | IC50 [5] [nM] | JAK2/JAK1 [6] | further results
N#CCC1(n2cc(-c3ncnc4[nH]ccc34)cn2)CN(C2CCN(C(=O)c3ccnc(C(F)(F)F)c3F)CC2)C1 [Compound 7, {1-{1-[3-Fluoro-2-(trifluoromethyl)isonicotinoyl]piperidin-4-yl}-3-[4-(7H-pyrrolo[2,3-d]pyrimidin-4-yl)-1H-pyrazol-1-yl]azetidin-3-yl}acetonitrile] | < 10 | >10 | IL10-induced expression of Pim2 (Pfeiffer cells [3]): blocked
